For orientation: IC50 means the concentration that gives 50% inhibition.

In one test the target is Recombinant human KLK7 (Homo sapiens (Human), UniProt P49862). Description: KLK7 assay. The format is biochemical. The note with it: substrate S-2586, 37° C., pH 7.2.
The next test concerns the target Chymotrypsin, bovine (Bos taurus (Bovine), UniProt P00766). In words: Chymotrypsin assay. The format is biochemical. Particulars: substrate S-2586, 37° C., pH 7.2. As for the experimental part: Materials: Chymotrypsin, bovine, 25 μg (Roche, sequence grade), Substrate S-2586 (Chromogenics, cat. no. 82 08 94)
For the next test, the target named is Cathepsin G (Homo sapiens (Human), UniProt P08311). Description: Cathepsin G assay.
Cathepsin G, sequence (P08311 21-255): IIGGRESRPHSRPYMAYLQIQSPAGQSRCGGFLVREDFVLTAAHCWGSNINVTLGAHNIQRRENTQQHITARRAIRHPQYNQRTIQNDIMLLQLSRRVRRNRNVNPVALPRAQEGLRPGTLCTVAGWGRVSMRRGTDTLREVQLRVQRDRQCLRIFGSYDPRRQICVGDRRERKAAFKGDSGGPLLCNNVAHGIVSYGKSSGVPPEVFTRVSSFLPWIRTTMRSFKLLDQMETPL
Another test concerns the target Trypsin (Bos taurus (Bovine), UniProt P00760). In words: Trypsin assay. The format is biochemical, human. The note with it: substrate S-2288, 37° C., pH 7.2.
The target of another test is Recombinant human KLK5 (Homo sapiens (Human), UniProt Q9Y337). In words: KLK5 assay.
Recombinant human KLK5, sequence (Q9Y337 23-293): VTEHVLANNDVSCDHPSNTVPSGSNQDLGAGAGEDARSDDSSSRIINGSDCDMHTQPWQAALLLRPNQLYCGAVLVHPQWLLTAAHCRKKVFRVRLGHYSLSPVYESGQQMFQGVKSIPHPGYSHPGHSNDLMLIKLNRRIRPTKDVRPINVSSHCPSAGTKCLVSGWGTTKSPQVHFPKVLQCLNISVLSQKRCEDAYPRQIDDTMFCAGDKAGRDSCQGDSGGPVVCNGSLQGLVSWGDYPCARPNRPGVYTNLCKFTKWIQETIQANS

Trypsin, sequence (P00760 24-246): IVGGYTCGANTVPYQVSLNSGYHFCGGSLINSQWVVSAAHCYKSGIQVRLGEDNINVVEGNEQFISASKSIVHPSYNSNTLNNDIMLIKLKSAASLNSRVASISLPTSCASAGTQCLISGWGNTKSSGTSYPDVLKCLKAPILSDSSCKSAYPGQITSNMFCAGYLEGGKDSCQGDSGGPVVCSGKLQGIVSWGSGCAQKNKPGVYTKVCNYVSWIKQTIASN
Recombinant human KLK7, sequence (P49862 30-253): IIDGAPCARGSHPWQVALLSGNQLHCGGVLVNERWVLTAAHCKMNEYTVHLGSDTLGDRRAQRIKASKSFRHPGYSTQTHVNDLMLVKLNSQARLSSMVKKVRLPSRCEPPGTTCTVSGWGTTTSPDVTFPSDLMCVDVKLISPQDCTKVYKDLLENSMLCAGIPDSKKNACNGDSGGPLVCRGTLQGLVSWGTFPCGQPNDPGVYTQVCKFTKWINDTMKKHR
Description for Cathepsin G: (§1) IC50 values for a number of substituted 3,1-benzoxazin-4-ones on a panel of human proteases were determined.
Description for Recombinant human KLK5: as §1

As to `CCOc1cc2c(=O)oc(-c3ccccc3SC)nc2cc1OC` [Compound 1, 6-ethoxy-7-methoxy-2-(2-methylsulfanylphenyl)-3,1-benzoxazin-4-one], the IC50 on Recombinant human KLK7 is 0.048 µM; against Chymotrypsin, bovine it was above 10 µM; against Cathepsin G, above 10 µM; on Trypsin, above 10 µM.
Take `CCOc1cc2c(=O)oc(-c3ccccc3Cl)nc2cc1OC` [Compound 2, 2-(2-chlorophenyl)-6-ethoxy-7-methoxy-3,1-benzoxazin-4-one]: the IC50 at Recombinant human KLK7 was 0.073 µM; against Chymotrypsin, bovine, above 10 µM; against Cathepsin G it was above 10 µM; at Trypsin it was above 10 µM.
`CCOc1cc2c(=O)oc(-c3ccc(OC)cc3OC)nc2cc1OC` [Compound 3]: the IC50 at Recombinant human KLK7 is 0.116 µM; against Chymotrypsin, bovine, above 10 µM; against Cathepsin G, 1.1 µM; against Trypsin, above 10 µM.
Take `CCOc1cc2c(=O)oc(-c3ccccc3S(C)(=O)=O)nc2cc1OC` [Compound 4]: the IC50 is 0.23 µM at Recombinant human KLK7; above 10 µM against Chymotrypsin, bovine; 2.8 µM on Cathepsin G; above 10 µM against Trypsin.
On to `CCOc1cc2c(=O)oc(-c3ccccc3OC)nc2cc1OC` [Compound 5], for which the IC50 was 0.085 µM on Recombinant human KLK7; above 10 µM at Chymotrypsin, bovine; 1.2 µM at Cathepsin G; above 10 µM against Trypsin.
Turning to `COc1ccccc1-c1nc2cc3c(cc2c(=O)o1)OCCCO3` [Compound 6], the IC50 on Recombinant human KLK7 was 0.08 µM; on Chymotrypsin, bovine, below 0.1 µM; on Trypsin, above 10 µM.
Consider `O=c1oc(-c2ccccc2Cl)nc2cc3c(cc12)OCCCO3` [Compound 7], for which the IC50 is 0.09 µM at Recombinant human KLK7; below 0.1 µM on Chymotrypsin, bovine; 1.9 µM against Cathepsin G; above 10 µM against Trypsin.
`COc1ccc(-c2nc3cc4c(cc3c(=O)o2)OCCCO4)c(OC)c1` [Compound 8]: the IC50 on Recombinant human KLK7 was 0.065 µM; against Chymotrypsin, bovine it was below 0.1 µM; against Trypsin, above 10 µM.
Turning to `CSc1ccccc1-c1nc2cc3c(cc2c(=O)o1)OCCCO3` [Compound 9], the IC50 at Recombinant human KLK7 is 0.228 µM; against Cathepsin G, 1.3 µM; against Trypsin, above 10 µM.
Regarding `CS(=O)(=O)c1ccccc1-c1nc2cc3c(cc2c(=O)o1)OCCCO3` [Compound 10], the IC50 on Recombinant human KLK7 was 0.188 µM; on Chymotrypsin, bovine, 0.2 µM; against Trypsin, above 10 µM.
With `CC(C)c1ccc(-c2nc3cc4c(cc3c(=O)o2)OCCCO4)c(C(C)C)c1` [Compound 11], the IC50 at Recombinant human KLK7 was 1.37 µM; against Chymotrypsin, bovine, 1 µM; against Cathepsin G, above 10 µM; against Trypsin it was above 10 µM.
For the molecule `COc1cc2nc(-c3ccccc3SC)oc(=O)c2cc1OC` [Compound 12], the IC50 is 0.147 µM on Recombinant human KLK7 and above 10 µM on Trypsin.
On to `COc1ccccc1-c1nc2cc3c(cc2c(=O)o1)OCCO3` [Compound 13], for which the IC50 on Recombinant human KLK7 was 0.155 µM; at Chymotrypsin, bovine, below 0.1 µM; at Trypsin, 1.8 µM.
With `CS(=O)(=O)c1ccccc1-c1nc2cc3c(cc2c(=O)o1)OCCO3` [Compound 14], the IC50 at Recombinant human KLK7 was 0.183 µM; against Chymotrypsin, bovine, below 0.1 µM; against Trypsin, 1.8 µM; on Recombinant human KLK5, 0.6 µM.
With `COC1=CC=C(c2nc3cc4c(cc3c(=O)o2)OCCO4)C(OC)C1` (stereo not drawn) [Compound 15], the IC50 on Recombinant human KLK7 was 0.105 µM; on Chymotrypsin, bovine it was below 0.1 µM; on Trypsin, 3.7 µM.
In the case of `O=c1oc(-c2ccccc2Cl)nc2cc3c(cc12)OCCO3` [Compound 16], the IC50 is 0.149 µM on Recombinant human KLK7; below 0.1 µM against Chymotrypsin, bovine; 3.7 µM against Trypsin.
For `COc1ccc(-c2nc3cc(OC)c(OC)cc3c(=O)o2)c(OC)c1` [Compound 17], the IC50 on Recombinant human KLK7 was 0.175 µM; at Chymotrypsin, bovine, 1.2 µM; against Cathepsin G it was 0.1 µM; at Trypsin, above 10 µM; on Recombinant human KLK5, 1 µM.
As to `COc1cc2nc(-c3ccccc3I)oc(=O)c2cc1OC` [Compound 18], the IC50 against Chymotrypsin, bovine is above 10 µM; against Cathepsin G it was 1.9 µM; on Trypsin, above 10 µM.

Values taken from patent publication US9695194B2, “Benzoxazinone derivatives for treatment of skin diseases” (SIXERA PHARMA AB, priority 2014, dated 2017).
